Reference: US5939560A, “Inhibitors of DP-mediated processes, compositions and therapeutic methods thereof” (Ferring B.V., priority 1993, dated 1999)

The compounds below were run against pure human DP-IV (Homo sapiens, UniProt P27487) (assay: Inhibition of pure human DP-IV in vitro, fluorescent substrate Ala-Pro-AFC, Ki from Dixon plots). Conditions: not given.
Method: All compounds were tested in vitro against pure human DP-IV (purchased from M & E, Copenhagen, Denmark). […] Ki values were determined using Dixon plots.

Chain of pure human DP-IV (P27487 whole entry): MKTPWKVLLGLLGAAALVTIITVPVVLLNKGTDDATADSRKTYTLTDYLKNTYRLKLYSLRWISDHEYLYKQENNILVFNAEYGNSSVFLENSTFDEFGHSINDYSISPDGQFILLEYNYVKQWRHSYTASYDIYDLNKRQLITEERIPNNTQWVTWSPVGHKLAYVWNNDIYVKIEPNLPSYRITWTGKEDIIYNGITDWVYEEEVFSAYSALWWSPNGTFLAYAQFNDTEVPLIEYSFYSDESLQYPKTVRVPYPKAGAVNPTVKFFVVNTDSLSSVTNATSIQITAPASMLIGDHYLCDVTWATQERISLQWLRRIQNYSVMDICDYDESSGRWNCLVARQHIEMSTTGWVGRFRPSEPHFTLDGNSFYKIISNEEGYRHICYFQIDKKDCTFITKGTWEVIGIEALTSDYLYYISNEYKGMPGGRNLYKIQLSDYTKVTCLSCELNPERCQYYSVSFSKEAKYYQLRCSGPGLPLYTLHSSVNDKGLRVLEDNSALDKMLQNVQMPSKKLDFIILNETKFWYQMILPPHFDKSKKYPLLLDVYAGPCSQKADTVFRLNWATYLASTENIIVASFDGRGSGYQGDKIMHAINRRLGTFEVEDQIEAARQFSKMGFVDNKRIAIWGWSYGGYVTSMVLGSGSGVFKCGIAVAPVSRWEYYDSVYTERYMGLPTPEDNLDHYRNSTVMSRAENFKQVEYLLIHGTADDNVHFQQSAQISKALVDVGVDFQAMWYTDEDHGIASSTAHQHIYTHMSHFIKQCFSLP

Ki | Structure (SMILES)
17 nM | N#C[C@@H]1CCCN1C(=O)[C@@H](N)CCCCNC(=O)CCCCCCCN [compound 136]
250 nM | N[C@@H](CCCCNC(=O)CCCNS(=O)(=O)c1c(F)c(F)c(F)c(F)c1F)C(=O)N1CCCC1 [compound 110, H-Lys[CO(CH2)3 NHSO2 Pfp]Prl]
180 nM | N[C@@H](CCC(=O)NCCCCCCC(=O)NCCCCCC(=O)O)C(=O)N1CCCC1 [compound 66]
37 nM | N#C[C@@H]1CCCN1C(=O)[C@H]1CC=CC[C@@H]1N [compound 35]
940 nM | CCCCCCO[C@H](C)[C@H](N)C(=O)N1CCCC1 [compound 143, H-Thr[(CH2)5 CH3]pyrrolidide]
150 nM | N[C@@H](CCC(=O)NCCCCCC(=O)OCc1ccccc1)C(=O)N1CCCC1 [compound 59]
9.8 nM | N[C@H]1CCCC[C@@H]1C(=O)N1CCC[C@H]1C=O [compound 38]
0.5 nM | N#C[C@@H]1CSCN1C(=O)[C@@H](N)C1CCCC1 [compound 23]
2 nM | CC1(C)C2CC3OB(C4CCCN4C(=O)C4CC=CCC4N)OC3(C)C1C2 (centres unmarked) [compound 44]
0.5 nM | N#C[C@@H]1CCCN1C(=O)[C@@H](N)CCC(=O)NCCCCCC(=O)OCc1ccccc1 [compound 97]

Same assay, conditions: read-out: Ki against DP-IV; pure human DP-IV, pH 7.8, substrate Ala-Pro-AFC, Dixon plots

Ki | Structure (SMILES)
1700 nM | CC[C@H](C)[C@H](N)/C=C1\CCC[C@H]1C#N [compound 150]
